Measured values taken from patent US11992012B2, “Diaminotriazine compounds” (BASF SE, priority 2018, dated 2024).

Tests used:
Type in all cases: in vivo
[1] = test system: Alopercurus myosuroides; assay: greenhouse pre-emergence herbicidal test; conditions: 250 g/ha, scale 0 to 100
Outline: (§1)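 Seeds sown in loamy sand (~3.0% humus); compounds suspended or emulsified in water, sprayed directly after sowing, pots covered until rooting. Kept at 10-25° C. or 20-35° C. by species for 2 to 4 weeks. Damage scored visually 0-100 (100 = no emergence or complete aerial destruction).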

[2] = test system: Abutilon theophrasti; assay: greenhouse pre-emergence herbicidal test; conditions: 250 g/ha, scale 0 to 100
Outline: (§2)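 Compounds suspended or emulsified in water were sprayed onto loamy sand (about 3.0% humus) right after sowing; pots were hooded until rooting. Damage was scored on a 0–100 scale (100 = no emergence or complete aerial destruction, 0 = normal growth) after 2 to 4 weeks.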

[3] = test system: Setaria faberi; assay: greenhouse pre-emergence herbicidal test; conditions: 250 g/ha, scale 0 to 100
Outline: as §2

[4] = test system: Echinocloa crus-galli; assay: greenhouse pre-emergence herbicidal test; conditions: 250 g/ha, scale 0 to 100
Outline: as §1

[5] = test system: Apera spica-venti; assay: greenhouse pre-emergence herbicidal test; conditions: 250 g/ha, scale 0 to 100
Outline: as §1

[6] = test system: Abutilon theophrasti; assay: greenhouse post-emergence herbicidal test; conditions: scale 0 to 100
From the text: (§3) The culture containers used were plastic flowerpots containing loamy sand with approximately 3.0% of humus as the substrate. The seeds of the test plants were sown separately for each species.
(§4) For the post-emergence treatment, the test plants were first grown to a height of 3 to 15 cm, depending on the plant habit, and only then treated with the active ingredients which had been suspended or emulsified in water. For this purpose, the test plants were either sown directly and grown in the same containers, or they were first grown separately as seedlings and transplanted into the test containers a few days prior to treatment.
(§5) Depending on the species, the plants were kept at 10-25° C. or 20-35° C., respectively.
(§6) The test period extended over 2 to 4 weeks. During this time, the plants were tended, and their response to the individual treatments was evaluated.
(§7) Evaluation was carried out using a scale from 0 to 100. 100 means no emergence of the plants, or complete destruction of at least the aerial moieties, and 0 means no damage, or normal course of growth. A moderate herbicidal activity is given at values of at least 60, a good herbicidal activity is given at values of at least 70, and a very good herbicidal activity is given at values of at least 85.

[7] = test system: Echinocloa crus-galli; assay: greenhouse post-emergence herbicidal test; conditions: 125 g/ha, scale 0 to 100
From the text: as §3, §4, §5, §6, §7

[8] = test system: Setaria viridis; assay: greenhouse post-emergence herbicidal test; conditions: 125 g/ha, scale 0 to 100
From the text: as §3, §4, §5, §6, §7

[9] = test system: Amaranthus retroflexus; assay: greenhouse pre-emergence herbicidal test; conditions: 250 g/ha, scale 0 to 100
Outline: as §1

[10] = test system: Amaranthus retroflexus; assay: greenhouse post-emergence herbicidal test; conditions: 250 g/ha, scale 0 to 100
From the text: as §3, §4, §5, §6, §7

[11] = test system: Lolium multiflorum; assay: greenhouse pre-emergence herbicidal test; conditions: 250 g/ha, scale 0 to 100
Outline: as §1

Row | SMILES | herbicidal activity [1] [%] | herbicidal activity [2] [%] | herbicidal activity [3] [%] | herbicidal activity [4] [%] | further results
1 | CC(C)(F)c1nc(N)nc(Nc2c(Cl)cccc2OCc2ccccc2)n1 [Example 85] | 70 | 90 | 70 |  | 
2 | CC(C)(F)c1nc(N)nc(Nc2c(F)ccc(F)c2OCc2c(F)cccc2F)n1 [Example 167] | 100 | 100 | 100 |  | 
3 | COC(C)(C)c1nc(N)nc(Nc2c(F)c(F)cc(F)c2OCc2ccc(C)cc2)n1 [Example 228] | 100 | 100 |  | 90 | 
4 | CC(C)(F)c1nc(N)nc(Nc2c(F)cccc2OCc2cccc(OCC(F)(F)F)c2)n1 [Example 134] |  |  | 90 | 90 | herbicidal activity [5]: 95%
5 | CC(C)(F)c1nc(N)nc(Nc2c(F)c(F)cc(F)c2OCc2c(F)cccc2F)n1 [Example 165] | 100 | 100 |  | 100 | 
6 | CC(C)(F)c1nc(N)nc(Nc2c(F)c(F)cc(F)c2OCc2ccccc2Cl)n1 [Example 206] | 100 | 100 | 100 | 100 | 
7 | CC(C)(F)c1nc(N)nc(Nc2c(F)cccc2OCc2ccccc2[N+](=O)[O-])n1 [Example 28] |  |  |  |  | herbicidal activity ([6]; 125 g/ha): 75%; herbicidal activity [7]: 85%; herbicidal activity [8]: 75%
8 | COc1cccc(COc2c(F)ccc(F)c2Nc2nc(N)nc(C(C)(C)F)n2)c1 [Example 139] |  | 100 | 100 | 100 | herbicidal activity [9]: 100%
9 | CC(C)(F)c1nc(N)nc(Nc2c(F)c(F)c(F)c(F)c2OCc2ccccc2)n1 [Example 236] | 95 | 100 |  | 100 | 
10 | Cc1cc(COc2cccc(F)c2Nc2nc(N)nc(C(C)(C)F)n2)c(C)s1 [Example 125] |  |  |  | 100 | herbicidal activity [5]: 85%
11 | CC(C)CC(F)c1nc(N)nc(Nc2c(F)cccc2OCc2ccccc2)n1 (stereo not drawn) [Example 233] | 80 | 75 |  | 95 | 
12 | CC(C)(F)c1nc(N)nc(Nc2c(F)cccc2OCc2cc(Cl)sc2Cl)n1 [Example 112] |  |  |  | 80 | herbicidal activity [5]: 80%; herbicidal activity ([6]; 250 g/ha): 100%; herbicidal activity [10]: 100%
13 | COC(C)(C)c1nc(N)nc(Nc2c(F)cccc2OC(F)(F)c2cccc(F)c2)n1 [Example 131] |  | 90 | 90 |  | herbicidal activity [9]: 85%
14 | COC(C)(C)c1nc(N)nc(Nc2c(F)c(F)cc(F)c2OCc2cccc(Cl)c2)n1 [Example 252] |  | 100 | 100 |  | herbicidal activity [9]: 95%
15 | CCc1ccc(COc2c(F)cc(F)c(F)c2Nc2nc(N)nc(C(C)(C)F)n2)cc1 [Example 216] | 98 | 100 | 100 |  | 
16 | CC(C)(F)c1nc(N)nc(Nc2c(F)cccc2OCc2ccsc2)n1 [Example 22] |  | 100 | 100 | 100 | herbicidal activity [9]: 100%

Row | SMILES | herbicidal activity [1] [%] | herbicidal activity [2] [%] | herbicidal activity [3] [%] | herbicidal activity [4] [%] | further results
17 | Cc1ccc(COc2c(F)cc(F)c(F)c2Nc2nc(N)nc(C(C)F)n2)cc1 (stereo not drawn) [Example 231] | 98 | 98 |  | 98 | 
18 | Cc1ccccc1COc1c(F)cc(F)c(F)c1Nc1nc(N)nc(C(C)F)n1 (stereo not drawn) [Example 229] | 100 | 100 |  | 100 | 
19 | COc1ccccc1COc1c(F)cc(F)c(F)c1Nc1nc(N)nc(C(C)(C)OC)n1 [Example 214] | 98 | 100 | 90 |  | 
20 | Cc1cscc1COc1cccc(F)c1Nc1nc(N)nc(C(C)(C)F)n1 [Example 111] |  |  |  | 85 | herbicidal activity [5]: 80%; herbicidal activity ([6]; 250 g/ha): 100%; herbicidal activity [10]: 100%
21 | CC(C)(F)c1nc(N)nc(Nc2c(F)cc(F)c(F)c2OCc2ccccc2)n1 [Example 188] | 100 | 100 |  | 100 | 
22 | CC(C)(F)c1nc(N)nc(Nc2c(F)c(F)cc(Cl)c2OCc2ccccc2)n1 [Example 234] | 90 | 100 |  | 100 | 
23 | Cc1ccc(COc2cccc(F)c2Nc2nc(N)nc(C(C)(C)F)n2)cc1F [Example 56] |  |  |  | 95 | herbicidal activity [11]: 100%
24 | CC(C)(F)c1nc(N)nc(Nc2c(F)cccc2OCc2cccc(OC(F)(F)F)c2)n1 [Example 136] |  |  | 80 | 85 | herbicidal activity [5]: 80%
25 | COC(C)(C)c1nc(N)nc(Nc2c(F)c(F)cc(F)c2OCc2ccccc2C)n1 [Example 226] | 100 | 90 |  | 100 | 
26 | CCC(F)c1nc(N)nc(Nc2c(F)cccc2OCc2ccccc2)n1 (stereo not drawn) [Example 35] |  | 100 | 100 | 100 | herbicidal activity [9]: 100%
27 | Cc1ccccc1COc1cccc(F)c1Nc1nc(N)nc(C(C)(C)F)n1 [Example 30] |  | 100 | 100 | 100 | herbicidal activity [9]: 100%
28 | Nc1nc(Nc2c(F)c(F)cc(F)c2OCc2ccccc2)nc(C2(F)CCCC2)n1 [Example 199] | 100 | 100 |  | 100 | 
29 | CC(C)(F)c1nc(N)nc(Nc2c(F)cccc2OCc2ccsc2C#N)n1 [Example 121] |  |  |  |  | herbicidal activity [9]: 80%; herbicidal activity ([6]; 250 g/ha): 100%; herbicidal activity [10]: 100%
30 | CC(C)(F)c1nc(N)nc(Nc2c(F)c(F)cc(F)c2OCc2cccc(F)c2)n1 [Example 204] | 100 | 100 | 100 | 100 | 
31 | COC(C)c1nc(N)nc(Nc2c(F)c(F)cc(F)c2OCc2cccc(Cl)c2)n1 (stereo not drawn) [Example 244] |  | 85 | 75 |  | herbicidal activity [9]: 75%
